From ChEMBL document CHEMBL5346920, “Development of the "hidden" multi-target-directed ligands by AChE/BuChE for the treatment of Alzheimer's disease” (Eur J Med Chem, 2023)
Calls of active or inactive are those of the source. The calls are words filed in the database; no cut-off is given here.

Tests used:
[1] = biological target: T1, Acetylcholinesterase (Electrophorus electricus, UniProt O42275); experiment: Drug metabolism assessed as electric eel AChE-mediated 3-(4-fluorophenyl)-1-(2-hydroxyphenyl)prop-2-en-1-one formation treated at 150 mmol/L with 0.25U AChE and measured after 6 secs by HPLC analysis; format: ADME; conditions: 6 s, time 6 sec
T1 sequence (O42275 whole entry): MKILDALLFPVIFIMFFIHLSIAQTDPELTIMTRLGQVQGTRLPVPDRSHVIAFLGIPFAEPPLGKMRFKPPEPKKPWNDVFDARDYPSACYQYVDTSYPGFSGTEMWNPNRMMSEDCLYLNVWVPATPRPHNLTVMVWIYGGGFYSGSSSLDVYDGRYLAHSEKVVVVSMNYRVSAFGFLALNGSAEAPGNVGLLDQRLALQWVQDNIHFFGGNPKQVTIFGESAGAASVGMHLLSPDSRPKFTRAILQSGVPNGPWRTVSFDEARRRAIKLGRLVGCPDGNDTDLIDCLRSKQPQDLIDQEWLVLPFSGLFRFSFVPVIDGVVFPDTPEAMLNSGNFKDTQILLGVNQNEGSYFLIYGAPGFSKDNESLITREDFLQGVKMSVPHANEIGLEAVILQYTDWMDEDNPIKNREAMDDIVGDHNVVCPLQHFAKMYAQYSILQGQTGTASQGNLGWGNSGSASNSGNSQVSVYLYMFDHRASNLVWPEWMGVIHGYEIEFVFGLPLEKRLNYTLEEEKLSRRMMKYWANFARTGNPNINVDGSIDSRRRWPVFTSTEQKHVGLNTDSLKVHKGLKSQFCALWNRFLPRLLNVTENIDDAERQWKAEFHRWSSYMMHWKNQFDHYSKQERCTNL

[2] = Stability of the compound in rat liver microsomes assessed as parent compound remaining at 10 ug/ml measured after 60 mins by UPLC-MS/MS analysis; format: ADME, Microsome; conditions: at 10 µg/mL, read-out: Stability
[3] = Stability of the compound in artificial intestinal juice assessed as parent compound remaining at 1 mg/ml measured after 8 hrs by UPLC-MS/MS analysis; format: ADME; conditions: read-out: Stability
[4] = Acute toxicity in zebra fish assessed as effect on liver fluorescence area at 0.3125 to 1.25 ug/ml and measured at 120 hpf by microscopic analysis; design: species or system Danio rerio; conditions: zebrafish; dose 0.3125-1.25 µg/ml
[5] = system: BV-2; experiment: Anti-inflammatory activity against LPS-stimulated mouse BV-2 cells assessed as inhibition of LPS-induced NO production incubated for 24 hrs in presence of LPS; format: functional, cell-based; conditions: dose 1-9 µM
[6] = organism: Danio rerio; experiment: Neuroprotective activity against AlCl3-induced Alzheimer's disease zebra fish model assessed as distance velocity at 0.078 ug/ml treated for 24 hrs and measured after 24 hrs under light environment (reference value: 7.7 cm/min); format: functional; conditions: dose 0.078 µg/ml; time 48 hrs
[7] = biological target: T2, Cholinesterase (Equus caballus, UniProt P81908); experiment: Drug metabolism assessed as equine serum BuChE-mediated 3-(4-fluorophenyl)-1-(2-hydroxyphenyl)prop-2-en-1-one formation treated at 150 mmol/L with 0.05U BuChE and measured after 9 mins by HPLC analysis; format: ADME, cell-free; conditions: horse, 0.15 h
T2 sequence (P81908 whole entry): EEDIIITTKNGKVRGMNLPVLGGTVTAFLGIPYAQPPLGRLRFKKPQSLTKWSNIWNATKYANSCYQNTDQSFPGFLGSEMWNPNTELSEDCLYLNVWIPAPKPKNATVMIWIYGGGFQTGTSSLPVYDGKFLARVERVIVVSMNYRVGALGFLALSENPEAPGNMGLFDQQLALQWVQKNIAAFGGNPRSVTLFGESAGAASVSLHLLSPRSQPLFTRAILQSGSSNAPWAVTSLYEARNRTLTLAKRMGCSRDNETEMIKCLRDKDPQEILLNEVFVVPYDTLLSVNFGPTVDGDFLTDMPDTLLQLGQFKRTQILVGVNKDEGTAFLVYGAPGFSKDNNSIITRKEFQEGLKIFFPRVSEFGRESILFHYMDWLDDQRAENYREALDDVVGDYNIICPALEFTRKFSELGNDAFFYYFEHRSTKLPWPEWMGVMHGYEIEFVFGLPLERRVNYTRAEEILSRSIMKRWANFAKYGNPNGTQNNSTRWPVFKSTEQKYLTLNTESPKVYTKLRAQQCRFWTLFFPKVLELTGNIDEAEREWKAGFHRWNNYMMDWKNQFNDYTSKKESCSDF

[8] = biological target: T1, Acetylcholinesterase; experiment: Drug metabolism assessed as electric eel AChE-mediated 3-(4-fluorophenyl)-1-(2-hydroxyphenyl)prop-2-en-1-one formation treated at 150 mmol/L with 0.5U AChE and measured after 9 mins by HPLC analysis; format: ADME; conditions: 0.15 h
[9] = Metal chelating activity assessed as compound-Fe2+ complex formation at 37.5 uM incubated for 30 mins in presence of FeSO4 by UV-Vis spectrometry
[10] = organism: Danio rerio; experiment: Neuroprotective activity against AlCl3-induced Alzheimer's disease zebra fish model assessed as distance velocity at 0.0195 ug/ml treated for 24 hrs and measured after 24 hrs under light environment (reference value: 7.7 cm/min); format: functional; conditions: dose 0.0195 µg/ml; time 48 hrs
[11] = Stability of the compound in artificial gastric juice assessed as parent compound remaining at 1 mg/ml measured after 8 hrs by UPLC-MS/MS analysis; format: ADME; conditions: read-out: Stability
[12] = biological target: T2, Cholinesterase; experiment: Drug metabolism assessed as equine serum BuChE-mediated 3-(4-fluorophenyl)-1-(2-hydroxyphenyl)prop-2-en-1-one formation by measuring decarbamoylation rate constant with 0.25U BuChE for 9 mins by HPLC analysis; format: ADME, cell-free; conditions: horse, 0.15 h
[13] = biological target: T1, Acetylcholinesterase; experiment: Inhibition of electric eel AChE using acetylthiocholine chloride as substrate by Ellman's method
[14] = Acute toxicity in zebra fish assessed as proportion of dead zebrafish at 5 to 10 ug/ml and measured every 24 hrs upto 120 hours post fertilization; design: species or system Danio rerio; conditions: in vivo, at 5 to 10 µg/mL, dose 5-10 µg/ml, read-out: Activity
[15] = Stability of the compound in blank intestinal juice assessed as parent compound remaining at 1 mg/ml measured after 8 hrs by UPLC-MS/MS analysis; format: ADME; conditions: read-out: Stability
[16] = organism: Danio rerio; experiment: Antialzheimer activity against AlCl3-induced Alzheimer's disease zebra fish model assessed as total distance moved at 0.0049 ug/ml treated for 24 hrs and measured after 24 hrs measured under light environment (reference value: 230 cm); format: functional; conditions: dose 0.0049 µg/ml; time 48 hrs
[17] = Permeability of the compound at 100 ug/ml incubated for 18 hrs by PAMPA assay; format: ADME; conditions: dose 100 µg/ml, read-out: permeability

CCN(C)C(=O)Oc1ccccc1C(=O)/C=C/c1ccc(F)cc1
Drug metabolism [1]: 1.46 mmol/L
remaining at 1 h, 10 ug/ml [2]: 96.2%
remaining at 8 h, 1 mg/ml [3]: 104%
Activity [4]: Non-Toxic
Activity [5]: Dose-Dependent Effect
Activity [6]: 7.5 cm/min
Drug metabolism [7]: 14.17 mmol/L
Drug metabolism [8]: 24.87 mmol/L
Activity [9]: inactive
Activity [10]: 11.5 cm/min
remaining at 8 h, 1 mg/ml [11]: 97.3%
K [12]: 4.05 M⁻¹ s⁻¹
IC50 [13]: 5.3 µM
mortality [14]: 100%
remaining at 8 h, 1 mg/ml [15]: 98.5%
Activity [16]: 373 cm
Papp at 18 h, 100 ug/ml [17]: 168 nm/s
